Assay results: patent publication US20100093748A1, “SUBSTITUTED PIPERIDINES HAVING PROTEIN KINASE INHIBITING ACTIVITY” (ASTEX THERAPEUTICS LIMITED, priority 2006, published 2010)

Tests used:
[1] = target: T1, PKB-PIF fusion protein (Homo sapiens, UniProt P31751); assay: Measurement of PKB kinase inhibitory activity (IC50), radiometric filter plate assay; format: biochemical; details: 0.6 nM enzyme, 30 μM ATP, AKTide-2T substrate, 20 minutes
T1 construct: PIF (fusion partner); made in house
Source text: The inhibition of protein kinase B (PKB) activity by compounds can be determined essentially as described by Andjelkovic et al. (Mol. Cell. Biol. 19, 5061-5072 (1999)) but using a fusion protein described as PKB-PIF and described in full by Yang et al (Nature Structural Biology 9, 940-944 (2002)). The protein is purified and activated with PDK1 as described by Yang et al. The peptide AKTide-2T (H-A-R-K-R-E-R-T-Y-S-F-G-H-H-A-OH) obtained from Calbiochem (#123900) is used as a substrate. A final concentration of 0.6 nM enzyme is used in a buffer that includes 20 mM MOPS pH 7.2, 30 μM ATP/γ^33P-ATP and 25 µM substrate. Compounds are added in DMSO solution to a final DMSO concentration of 2.5%. The reaction is allowed to proceed for 20 minutes before addition of excess orthophosphoric acid to quench activity. The reaction mixture is transferred to a phosphocellulose filter plate where the peptide binds and the unused ATP is washed away. After washing, scintillant is added and the incorporated activity measured by scintillation counting.
The % inhibition of the PKB activity is calculated and plotted in order to determine the concentration of test compound required to inhibit 50% of the PKB activity (IC50).

[2] = test system: phosphorylation of Serine-9 residue in Glycogen Synthase Kinase-3beta as surrogate marker of cellular PKB (Akt) activity; assay: In vitro MDA-MB-468 human breast adenocarcinoma GSK-3 phosphorylation assay; format: cell-based; details: MDA-MB-468 cells, 2 hours compound incubation, mean IC50, read-out: Cell pGSK3b IC50
Source text: This assay determines the ability of test compounds to inhibit phosphorylation of Serine-9 residue in Glycogen Synthase Kinase-3beta (GSK-313) as a surrogate marker of cellular PKB (Akt) activity, as assessed using Acumen Explorer Fluorescent Plate-Reader technology. A MDA-MB-468 human breast adenocarcinoma cell line (LGC Promochem, Teddington, Middlesex, UK, Catalogue No. HTB-132) was routinely maintained in Dulbecco's modified Eagle's growth medium (DMEM; Invitrogen Limited, Paisley, UK Catalogue No. 11966-025) containing 10% heat-inactivated foetal calf serum (FCS; Sigma, Poole, Dorset, UK, Catalogue No. F0392) and 1% L-glutamine (Gibco, Catalogue No. 25030-024) at 37° C. with 5% CO2 up to a confluency of 70-90%.
For the phosphorylation assay, the cells were detached from the culture flask using Trypsin-EDTA (Invitrogen Limited, Catalogue No. 25300-062) and seeded into the wells of a black transparent-bottom Corning Costar Polystyrene 96 well plate (Fisher Scientific UK, Loughborough, Leicestershire, UK; Catalogue No. 3904 and DPS-130-020K) at a density of 5000 cells per well in 100 μl of complete growth media. The cells were incubated overnight at 37° C. with 5% CO2 to allow them to adhere.
On day 2, the cells were treated with test compounds and incubated for 2 hours at 37° C. with 5% CO2. Test compounds were prepared as 10mM stock solutions in DMSO and dosed directly to required concentration into test wells using non-contact (acoustic dispensing of multiple 2.5 nl droplets directly into assay wells) ECHO dosing technology (Labcyte Inc Sunnyvale, Calif., USA). Each plate contained control wells without test compound.
20 μl of fixing buffer (Phosphate Buffered Saline (PBS) containing 10% formaldehyde; Sigma; Catalogue No. F1635) was then added to each well to give a final well concentration 1.6%. Plates were then incubated for 30 minutes at room temperature prior to the fixative being removed. Each well was washed once with 250 μl of PBS and then 50 μl PBS added to each well. PBS was then aspirated and cells permeabilised and blocked by incubating each well with 50 μl of permeabilisation/blocking buffer (PBS containing 0.5% Tween 20 (Sigma; Catalogue No. P5927) and 5% Marvel Milk Powder (Andrews Pharmacy Ltd, Macclesfield, Cheshire, UK; Catalogue No. APC100199)) for 1 hour at room temperature prior to staining.
Following removal of Perm/Block buffer, 50 μl of primary anti-phospho-GSK-3β antibody (Cell Signalling Technology (New England Biolabs (Uk) Ltd.), Hitchin, Hertfordshire, UK; Catalogue No.9336 diluted 1:400 in Blocking buffer (PBS containing 5% Marvel and 0.05% Tween/Polysorbate 20) was added to each well and incubated overnight at 4° C.
Each well was washed three times in 250 μl of wash buffer (PBS containing 0.05% polysorbate 20), and cells incubated for 1 hour at room temperature with 50 μl of secondary fluorescently-labelled anti-rabbit Alexa Fluor 488 antibody (Molecular Probes, Invitrogen Limited, Catalogue No. A11008) diluted 1:750 in blocking buffer. Plates were washed three times in 250 μl of wash buffer and stored containing 50 μl of PBS at 4° C. until required.
Plates were analysed using an Acumen Explorer Plate-reader to quantify level of fluorescent signal that represents quantity of phosphorylated-GSK-313.
IC50 calculation—IC50 is the concentration of compound required to give 50% effect over the range of activity affected by the compound, between maximum (no compound) and minimum (excess level of compound) response control data. IC50 values were determined by fitting background corrected, dose response assay data to a 4 parameter logistic curve fit equation model with the minimum response set to zero. This was done using an in-house developed algorithm within the Origin graphing software package (OriginLab Corporation, Northampton, Mass., USA). […]

T1 sequence (P31751 with tags, fused parts or gaps limits assumed): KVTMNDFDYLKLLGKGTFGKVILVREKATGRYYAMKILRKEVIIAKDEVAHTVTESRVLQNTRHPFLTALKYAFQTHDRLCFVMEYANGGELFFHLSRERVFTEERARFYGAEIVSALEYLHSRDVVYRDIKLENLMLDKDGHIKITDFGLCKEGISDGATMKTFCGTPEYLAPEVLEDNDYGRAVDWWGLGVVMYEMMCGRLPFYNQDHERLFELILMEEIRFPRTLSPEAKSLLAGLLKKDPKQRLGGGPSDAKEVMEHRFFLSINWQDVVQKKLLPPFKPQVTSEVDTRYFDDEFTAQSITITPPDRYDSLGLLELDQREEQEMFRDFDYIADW

Compound | IC50 [1] [nM] | IC50 [2] [nM]
Cc1ccc2nc(C3(N)CCN(c4ncnc5[nH]ccc45)CC3)[nH]c2c1 [Example 5, 4-(6-Methyl-1H-benzoimidazol-2-yl)-1-(7H-pyrrolo[2,3-d]pyrimidin-4-yl)-piperidin-4-ylamine] | < 100 | 
COc1cccc2[nH]c(C3(N)CCN(c4ncnc5[nH]ccc45)CC3)nc12 [Example 9, 4-(4-Methoxy-1H-benzoimidazol-2-yl)-1-(7H-pyrrolo[2,3-d]pyrimidin-4-yl)-piperidin-4-ylamine] | < 100 | 
NC1(c2nc3cnccc3[nH]2)CCN(c2ncnc3[nH]ccc23)CC1 [Example 10] | < 100 | 
NC1(c2nc3ccccc3[nH]2)CCN(c2ccnc3[nH]ccc23)CC1 [Example 19, 4-(1H-benzoimidazol-2-yl)-1-(1H-pyrrolo[2,3-b]pyridin-4-yl)-piperidin-4-ylamine] | < 100 | 
NC1(c2nc3ccc(Cl)cc3[nH]2)CCN(c2ccnc3[nH]ccc23)CC1 [Example 20, 4-(6-chloro-1H-benzoimidazol-2-yl)-1-(1H-pyrrolo[2,3-b]pyridin-4-yl)-piperidin-4-ylamine] | < 100 | 
CNC1(c2nc3ccccc3[nH]2)CCN(c2ncnc3[nH]ccc23)CC1 [Example 33, [4-(1H-benzoimidazol-2-yl)-1-(7H-pyrrolo[2,3-d]pyrimidin-4-yl)-piperidin-4-yl]-methyl-amine] | < 1000 | 
NC1(c2nc3c(-c4cncc(F)c4)cccc3[nH]2)CCN(c2ncnc3[nH]ccc23)CC1 [Example 96, 4-[4-(5-fluoropyridin-3-yl)-1H-benzimidazol-2-yl]-1-(7H-pyrrolo[3,2-e]pyrimidin-4-yl)piperidin-4-amine] |  | 44
Cc1ccc2[nH]c(C3(CN)CCN(c4ncnc5[nH]ccc45)CC3)nc2c1 [Example 97, (4-(5-methyl-1H-benzo[d]imidazol-2-yl)-1-(7H-pyrrolo[2,3-d]pyrimidin-4-yl)piperidin-4-yl)methanamine] |  | 85
Cc1ccc2[nH]c(C3(CN)CCN(c4ncnc5[nH]cc(Br)c45)CC3)nc2c1 [Example 98, (1-(5-bromo-7H-pyrrolo[2,3-d]pyrimidin-4-yl)-4-(5-methyl-1H-benzo[d]imidazol-2-yl)piperidin-4-yl)methanamine] |  | 180
NCC1(c2nc3c(-c4ccccc4)cccc3[nH]2)CCN(c2ncnc3[nH]ccc23)CC1 [Example 99, (4-(4-phenyl-1H-benzo[d]imidazol-2-yl)-1-(7H-pyrrolo[2,3-d]pyrimidin-4-yl)piperidin-4-yl)methanamine] |  | 15
Cn1cc(-c2cccc3[nH]c(C4(CN)CCN(c5ncnc6[nH]ccc56)CC4)nc23)cn1 [Example 100] |  | 14
NCC1(c2nc3c(C4CCOC4)cccc3[nH]2)CCN(c2ncnc3[nH]ccc23)CC1 (stereo not drawn) [Example 101, [4-[4-(oxolan-3-yl)-1H-benzimidazol-2-yl]-1-(7H-pyrrolo[3,2-e]pyrimidin-4-yl)piperidin-4-yl]methanamine] |  | 9.3
NC1(c2nc3c(-c4ccccc4)cccc3[nH]2)CCN(c2ncnc3[nH]cnc23)CC1 [Example 103, 4-(4-Phenyl-1H-benzimidazol-2-yl)-1-(9H-purin-6-yl)piperidin-4-amine] |  | 33
COc1ccc(-c2cccc3[nH]c(C4(N)CCN(c5ncnc6[nH]cnc56)CC4)nc23)cc1 [Example 104, 4-[4-(4-methoxyphenyl)-1H-benzimidazol-2-yl]-1-(9H-purin-6-yl)piperidin-4-amine] |  | 120
CS(=O)(=O)c1ccc(-c2cccc3[nH]c(C4(N)CCN(c5ncnc6[nH]cnc56)CC4)nc23)cc1 [Example 105, 4-[4-(4-methylsulfonylphenyl)-1H-benzimidazol-2-yl]-1-(9H-purin-6-yl)piperidin-4-amine] |  | 200
NC1(c2nc3c(-c4ccoc4)cccc3[nH]2)CCN(c2ncnc3[nH]cnc23)CC1 [Example 106, 4-(4-furan-3-yl-1H-benzimidazol-2-yl)-1-(9H-purin-6-yl)piperidin-4-amine] |  | 52
NC1(c2nc3c(-c4ccccc4)cccc3[nH]2)CCN(c2ncnc3[nH]ncc23)CC1 [Example 108, 4(4-phenyl-1H-benzo[d]imidazol-2-yl)-1-(1H-pyrazolo[3,4-d]pyrimidin-4-yl)piperidin-4-amine] |  | 350
COc1ccc(-c2cccc3[nH]c(C4(N)CCN(c5ncnc6[nH]ncc56)CC4)nc23)cc1 [Example 109, 4-[4-(4-methoxyphenyl)-1H-benzo[d]imidazol-2-yl)-1-(1H-pyrazolo[3,4-d]pyrimidin-4-yl)piperidin-4-amine] |  | 650
CS(=O)(=O)c1ccc(-c2cccc3[nH]c(C4(N)CCN(c5ncnc6[nH]ncc56)CC4)nc23)cc1 [Example 110, 4-[4-(4-methylsulfonylphenyl)-1H-benzo[d]imidazol-2-yl)-1-(1H-pyrazolo[3,4-d]pyrimidin-4-yl)piperidin-4-amine] |  | 490
NC1(c2nc3c(-c4ccoc4)cccc3[nH]2)CCN(c2ncnc3[nH]ncc23)CC1 [Example 111, 4-(4-furan-3-yl-1H-benzo[d]imidazol-2-yl)-1-(1H-pyrazolo[3,4-d]pyrimidin-4-yl)piperidin-4-amine] |  | 110
CS(=O)(=O)c1ccccc1-c1cccc2nc(C3(N)CCN(c4ncnc5[nH]ccc45)CC3)[nH]c12 [Example 112, 4-[7-(2-methylsulfonylphenyl)-1H-benzimidazol-2-yl]-1-(7H-pyrrolo[3,2-e]pyrimidin-4-yl)piperidin-4-amine] |  | 300
NCc1cc(-c2cccc3[nH]c(C4(N)CCN(c5ncnc6[nH]ccc56)CC4)nc23)ccc1F [Example 113, 4-(4-(3-(aminomethyl)-4-fluorophenyl)-1H-benzo[d]imidazol-2-yl)-1-(7H-pyrrolo[2,3-d]pyrimidin-4-yl)piperidin-4-amine] |  | 38
CS(=O)(=O)Cc1cccc(-c2cccc3[nH]c(C4(N)CCN(c5ncnc6[nH]ccc56)CC4)nc23)c1 [Example 115, 4-(4-(3-(methylsulfonylmethyl)phenyl)-1H-benzo[d]imidazol-2-yl)-1-(7H-pyrrolo[2,3-d]pyrimidin-4-yl)piperidin-4-amine] |  | 270
CS(=O)(=O)Cc1ccccc1-c1cccc2[nH]c(C3(N)CCN(c4ncnc5[nH]ccc45)CC3)nc12 [Example 116, 4-(4-(2-(methylsulfonylmethyl)phenyl)-1H-benzo[d]imidazol-2-yl)-1-(7H-pyrrolo[2,3-d]pyrimidin-4-yl)piperidin-4-amine] |  | 47
